Results: US5204373A, “Farnesylated tetrahydro-naphthalenols as hypolipidemic agents” (Bristol-Myers Squibb Company, priority 1991, dated 1993)

Assays:
[1] = system: β-Hydroxy-β-Methylglutaryl Coenzyme A Reductase (HMGR); test: Ex vivo HMGR suppression in the liver of drug dosed chickens; parameters: species or system chicken; settings: test compound 50 ppm in diet for four weeks, control 33.8
Protocol: β-Hydroxy-β-Methylglutaryl Coenzyme A Reductase (HMGR) activity in the liver of drug dosed chickens.
(§1) Newborn male chicks (8 for each group) were raised on a standard corn-soybean based control diet for two weeks and then switched to either control or experimental diets for four weeks. Drug treatment consisted of the addition of test compounds to the corn-soybean-based diet at a concentration of 50 ppm. At the end of the feeding period, all the birds were fasted (36 hours) and refed (48 hours) to induce cholesterolgenic enzymes prior to sacrifice. The specific activity of HMGR, total serum cholesterol levels, LDL cholesterol and HDL cholesterol pools were determined using previously described methods (Qureshi et al., J. Biol. Chem., 261, 10544 (1986)) (Table 1).

6-week old male chickens = test: In vivo lipid metabolism evaluation in normocholesterolemic chickens (serum cholesterol pools); parameters: species or system chicken; settings: test compound 50 ppm in corn-soybean diet for four weeks; for LDL Cholesterol: control 62.7 ± 2.5; for HDL Cholesterol: control 99.9 ± 1.9; for Total Cholesterol: fasted 36 h, refed 48 h, control 183.0 ± 4.5
Protocol: Serum cholesterol, triglycerides, low density and high density liproprotein cholesterol as determined in drug treated birds.
as §1

LDL = LDL antioxidant assay (conjugated diene formation); assay type: biochemical, rabbit; settings: for LR (end of lag phase of LDL oxidation) vs control: whole rabbit plasma incubated with drug, LDL isolated, time of first derivative maximum of conjugated diene kinetic curve
Protocol: Inhibition of LDL oxidation as measured by conjugated diene formation.
Whole rabbit plasma was incubated with either vehicle or drug, and the LDL was isolated by ultracentrifugation. EDTA was removed by dialysis and analysis of co-dependent LDL oxidation was determined by conjugated diene formation using the protocol established by Esterbauer et al., (Free Radical Res. Commun. 6(1), 75-75 (1989)). The time of the first derivative maximum in the kinetic curves, corresponding to the end of the lag phase (LR) of the reaction, indicates both the intrinsic effectiveness of the antioxidant combined with its local concentration with in the LDL particles. […] Substitution of methylene for oxygen at position 1 would diminish antioxidant capacity.

Compound: CC(C)=CCC/C(C)=C/CC/C(C)=C/CCC1(C)CCc2cc(O)ccc2C1 (centres unmarked) [Compound 12, 5,6,7,8-Tetrahydro-6-Methyl-6-(4,8,12-Trimethyl-3(E), (7E), 11-tridecatrienyl)-2-Naphthalenol]
- HMGR (specific activity) [1]: 14.6
- LDL Cholesterol (6-week old male chickens): 28.4 ± 1.3
- HDL Cholesterol (6-week old male chickens): 85.3 ± 1.3
- Total Cholesterol (6-week old male chickens): 125.5 ± 3.0
- LDL antioxidation properties (in words) (LDL; rabbit LDL, conjugated diene formation): exhibits LDL antioxidation properties
- LR (end of lag phase of LDL oxidation) vs control (LDL): 1.32

Compound: CC(C)=CCC/C(C)=C/CC/C(C)=C/CCC1(C)CCc2cc(O)ccc2O1 (centres unmarked) [Tocotrienol, reference compound]
- HMGR (specific activity) [1]: 13.6
- LDL Cholesterol (6-week old male chickens): 42.8 ± 2.8
- HDL Cholesterol (6-week old male chickens): 91.7 ± 1.0
- Total Cholesterol (6-week old male chickens): 149.8 ± 4.5
- LR (end of lag phase of LDL oxidation) vs control (LDL): 2.01
